From ChEMBL document CHEMBL1949623, “Camphorsulfonic acid catalysed facile tandem double Friedlander annulation protocol for the synthesis of phenoxy linked bisquinoline derivatives and discovery of antitubercular agents” (Bioorg Med Chem Lett, 2012)
Converted amounts (≈) assume the structure as drawn.

Tested on: Mycobacterium tuberculosis
Assay: Ratio of Ciprofloxacin MIC to compound MIC for multi-drug-resistant Mycobacterium tuberculosis H37Rv clinical isolate
Type: functional
Details: not given

**Q.** Which Ratio does the source give for Clc1ccc2nc(-c3ccc(Oc4c(-c5cccc(Br)c5)nc5ccc(Cl)cc5c4-c4ccccc4)cc3)cc(-c3ccccc3)c2c1 here?
**A.** Its Ratio is 4.27.

**Q.** For Clc1ccc2nc(-c3ccc(Oc4c(-c5ccc(Br)cc5)nc5ccc(Cl)cc5c4-c4ccccc4)cc3)cc(-c3ccccc3)c2c1, which Ratio is on record?
**A.** Its Ratio is 2.14.

Tested on: Mycobacterium tuberculosis
Assay: Antitubercular activity against multi-drug-resistant Mycobacterium tuberculosis H37Rv clinical isolate after 28 days by 10 fold serial dilution method
Type: functional
Details: 672 h

**Q.** With Brc1cccc(-c2nc3ccccc3c(-c3ccccc3)c2Oc2ccc(-c3cc(-c4ccccc4)c4ccccc4n3)cc2)c1 as the molecule, how does the MIC read?
**A.** The MIC was 4.7 µM (≈ 3.08 µg/mL).

**Q.** Which MIC does the source give for c1ccc(-c2ccc(-c3nc4ccccc4c(-c4ccccc4)c3Oc3ccc(-c4cc(-c5ccccc5)c5ccccc5n4)cc3)cc2)cc1 here?
**A.** Its MIC is 19.1 µM (≈ 12.5 µg/mL).

**Q.** COc1cccc(-c2nc3ccccc3c(-c3ccccc3)c2Oc2ccc(-c3cc(-c4ccccc4)c4ccccc4n3)cc2)c1 was tested. Which MIC did it give?
**A.** Its MIC is 41.2 µM (≈ 25 µg/mL).

**Q.** Which MIC does the source give for CC(=O)c1ccc(Oc2c(-c3cccc(Br)c3)nc3ccc(Cl)cc3c2-c2ccccc2)cc1 here?
**A.** Its MIC is 11.8 µM (≈ 6.24 µg/mL).

**Q.** How did the MIC turn out when CC[C@@H](CO)NCCN[C@@H](CC)CO [ETHAMBUTOL] was run?
**A.** Its MIC is 7.6 µM (≈ 1.55 µg/mL).

**Q.** For CC(=O)c1ccc(Oc2c(-c3ccc4ccccc4c3)nc3ccc(Cl)cc3c2-c2ccccc2)cc1, which MIC is on record?
**A.** The MIC was 50 µM (≈ 25 µg/mL).

**Q.** Brc1ccc(-c2nc3ccccc3c(-c3ccccc3)c2Oc2ccc(-c3cc(-c4ccccc4)c4ccccc4n3)cc2)cc1 was tested. Which MIC did it give?
**A.** The MIC was 19.1 µM (≈ 12.5 µg/mL).

**Q.** How did the MIC turn out when Clc1cccc(-c2nc3ccccc3c(-c3ccccc3)c2Oc2ccc(-c3cc(-c4ccccc4)c4ccccc4n3)cc2)c1 was run?
**A.** The MIC was 20.5 µM (≈ 12.5 µg/mL).

**Q.** For Clc1ccc2nc(-c3ccc(Oc4c(-c5cccc(Br)c5)nc5ccc(Cl)cc5c4-c4ccccc4)cc3)cc(-c3ccccc3)c2c1, which MIC is on record?
**A.** The MIC was 1.1 µM (≈ 0.797 µg/mL).

**Q.** Which MIC does the source give for NNC(=O)c1ccncc1 [ISONIAZID] here?
**A.** The MIC was 0.4 µM (≈ 0.0549 µg/mL).

**Q.** With Clc1ccc2nc(-c3ccc(Oc4c(-c5ccc(Br)cc5)nc5ccc(Cl)cc5c4-c4ccccc4)cc3)cc(-c3ccccc3)c2c1 as the molecule, how does the MIC read?
**A.** Its MIC is 2.2 µM (≈ 1.59 µg/mL).

**Q.** CO[C@H]1/C=C/O[C@@]2(C)Oc3c(C)c(O)c4c(O)c(c(/C=N/N5CCN(C)CC5)c(O)c4c3C2=O)NC(=O)/C(C)=C\C=C\[C@H](C)[C@H](O)[C@@H](C)[C@@H](O)[C@@H](C)[C@H](OC(C)=O)[C@@H]1C [RIFAMPIN] was tested. Which MIC did it give?
**A.** Its MIC is 0.1 µM (≈ 0.0823 µg/mL).

**Q.** For c1ccc(-c2nc3ccccc3c(-c3ccccc3)c2Oc2ccc(-c3cc(-c4ccccc4)c4ccccc4n3)cc2)cc1, which MIC is on record?
**A.** Its MIC is 43.4 µM (≈ 25 µg/mL).

**Q.** How did the MIC turn out when NC(=O)c1cnccn1 [PYRAZINAMIDE] was run?
**A.** The MIC was 50.8 µM (≈ 6.25 µg/mL).

**Q.** Cc1ccc(-c2nc3ccccc3c(-c3ccccc3)c2Oc2ccc(-c3cc(-c4ccccc4)c4ccccc4n3)cc2)cc1 was tested. Which MIC did it give?
**A.** The MIC was 42.3 µM (≈ 25 µg/mL).

**Q.** For Clc1ccc(-c2nc3ccccc3c(-c3ccccc3)c2Oc2ccc(-c3cc(-c4ccccc4)c4ccccc4n3)cc2)cc1, which MIC is on record?
**A.** Its MIC is 20.5 µM (≈ 12.5 µg/mL).

**Q.** Which MIC does the source give for CC(=O)c1ccc(Oc2c(-c3ccccc3)nc3ccc(Cl)cc3c2-c2ccccc2)cc1 here?
**A.** Its MIC is 55.6 µM (≈ 25 µg/mL).

**Q.** How did the MIC turn out when Clc1ccc2nc(-c3ccc(Oc4c(-c5ccccc5)nc5ccc(Cl)cc5c4-c4ccccc4)cc3)cc(-c3ccccc3)c2c1 was run?
**A.** The MIC was 19.4 µM (≈ 12.5 µg/mL).

**Q.** How did the MIC turn out when CC(=O)c1ccc(Oc2c(-c3ccc(Br)cc3)nc3ccc(Cl)cc3c2-c2ccccc2)cc1 was run?
**A.** Its MIC is 47.3 µM (≈ 25 µg/mL).

**Q.** COc1ccc(-c2nc3ccccc3c(-c3ccccc3)c2Oc2ccc(-c3cc(-c4ccccc4)c4ccccc4n3)cc2)cc1 was tested. Which MIC did it give?
**A.** The MIC was 41.2 µM (≈ 25 µg/mL).

**Q.** For CC(=O)c1ccc(Oc2c(-c3ccc(C)cc3)nc3ccc(Cl)cc3c2-c2ccccc2)cc1, which MIC is on record?
**A.** Its MIC is 53.8 µM (≈ 25 µg/mL).

**Q.** Which MIC does the source give for c1ccc(-c2cc(-c3ccc(Oc4c(-c5ccc6ccccc6c5)nc5ccccc5c4-c4ccccc4)cc3)nc3ccccc23)cc1 here?
**A.** The MIC was 39.9 µM (≈ 25 µg/mL).

**Q.** Clc1ccc(-c2nc3ccc(Cl)cc3c(-c3ccccc3)c2Oc2ccc(-c3cc(-c4ccccc4)c4cc(Cl)ccc4n3)cc2)cc1 was tested. Which MIC did it give?
**A.** The MIC was 4.6 µM (≈ 3.13 µg/mL).

**Q.** With c1ccc(-c2cc(-c3ccc(Oc4c(-c5cccc6ccccc56)nc5ccccc5c4-c4ccccc4)cc3)nc3ccccc23)cc1 as the molecule, how does the MIC read?
**A.** The MIC was 39.8 µM (≈ 24.9 µg/mL).

**Q.** How did the MIC turn out when CC(=O)c1ccc(Oc2c(-c3ccc(Cl)cc3)nc3ccc(Cl)cc3c2-c2ccccc2)cc1 was run?
**A.** Its MIC is 51.6 µM (≈ 25 µg/mL).

**Q.** How did the MIC turn out when Clc1ccc2nc(-c3ccc(Oc4c(-c5ccc6ccccc6c5)nc5ccc(Cl)cc5c4-c4ccccc4)cc3)cc(-c3ccccc3)c2c1 was run?
**A.** Its MIC is 35.9 µM (≈ 25 µg/mL).

**Q.** Cc1ccc(-c2nc3ccc(Cl)cc3c(-c3ccccc3)c2Oc2ccc(-c3cc(-c4ccccc4)c4cc(Cl)ccc4n3)cc2)cc1 was tested. Which MIC did it give?
**A.** The MIC was 37.9 µM (≈ 25 µg/mL).

Tested on: Mycobacterium tuberculosis
Assay: Ratio of Ethambutol MIC to compound MIC for multi-drug-resistant Mycobacterium tuberculosis H37Rv clinical isolate
Type: functional
Details: not given

**Q.** Which Ratio does the source give for Clc1ccc2nc(-c3ccc(Oc4c(-c5ccc(Br)cc5)nc5ccc(Cl)cc5c4-c4ccccc4)cc3)cc(-c3ccccc3)c2c1 here?
**A.** Its Ratio is 3.45.
